# Reference: patent US20080255244A1, “CaM Kinase II Inhibitor Improves Retinoic Acid Therapy and Inhibits the Proliferation of Myeloid Leukemia Cells” (Fred Hutchinson Cancer Research Center, priority 2007, published 2008)
# What was measured:
# [1] = system: autophosphorylated CaMKIIγ in HL60 cells; test: Western blot of CaMKIIγ autophosphorylation in HL60 cells; type: cell-based, human; details: for activated, autophosphorylated CaMKIIγ level: phospho-T286/7 antibody, ATRA 1 μM, TPA 0.1 μM
# Experimental: (§1) FIG. 7. KN-62 regulates the differentiation of myeloid leukemia cell lines. (A) Wright Giemsa-stained HL-60 cells either (a) uninduced or treated for five days with (b) KN62 or (c) ATRA. (d) CD11b expression in HL-60 cells after five days exposure to KN62 (5 μM) or ATRA (1 μM). (B) Wright-Giemsa stained NB4 cells treated for five days with KN-62 (5 μM) and ATRA as indicated. […] (C) Cd11b expression of NB4 cells treated for five days with the indicated concentrations of RA and/or KN-62. (D) Western blots with the indicated antibodies were performed on HL60 cell lysates following incubation with KN62 for the indicated period of time. (E) Western blots of NB4 cell lysates following a five day incubation with the indicated compounds.
# (§2) FIG. 9. Terminal differentiation/apoptosis of myeloid leukemia cells is associated with decreased CaMKIIγ activation. (A) Lysates from the HL60, NB4 and U937 myeloid cell lines treated with ATRA (1 μM) for the indicated period of time were subjected to Western blots. (B) Lysates from the indicated myeloid cell lines treated for five days with the indicated concentration of ATRA were subjected to Western blots. (C) Lysates from HL60 cells treated with TPA (0.1 μM) for the indicated time were subjected to Western blots. (D) Lysates from NB4 cells treated with arsenic trioxide (1 uM) for the indicated time were subjected to Western blots.
# (§3) Protein extracts, Western blotting and co-immunoprecipitations. Westerns and co-immunoprecipitations were performed as previously detailed (Si, J., and Collins, S. J., Blood 100:4401-4409 (2002)).
# (§4) Antibodies and Western blots. Protein extracts, immunoprecipitations and Western blots were performed as previously detailed (Si J, Collins S J. IL-3-induced enhancement of retinoic acid receptor activity is mediated through Stat5, which physically associates with retinoic acid receptors in an IL-3-dependent manner. Blood 100: 4401-9 (2002)). Antibodies against CaMKI, CaMKIIγ, CaMKIV, c-myc, Stat3, Stat5, calmodulin, as well as the phosphospecific CaMKII (T286, 287) and phosphospecific CaMKI (T177) antibodies were from Santa Cruz Biotechnology. Antibodies against phospho-Stat1 (Ser727), phospho-Stat3 (Ser727 and Tyr 705), phospho-Stat5 (Tyr 694), phospho-p44/42 MAP kinase (Thr202/Tyr 204), p44/42 MAP kinase, phospho-p38 MAP kinase (Thr 180/Tyr 182), phospho-GSK3β (Ser9) were from Cell Signaling Technology. Antibodies against Stat1, GSK3β, β-catenin, PP2Ac, and cyclin D1 were from BD Biosciences.
# [2] = system: autophosphorylated CaMKIIγ in NB4 cells; test: Western blot of CaMKIIγ autophosphorylation in NB4 cells; type: cell-based, human; details: for activated, autophosphorylated CaMKIIγ level: single agent, ATRA 1 μM, arsenic trioxide 1 uM
# Experimental: as §1, §2, §3, §4
# [3] = system: NB4 promyelocytic leukemia cell line; test: Differentiation of NB4 cells (morphology, Cd11b); type: cell-based, human; details: five days; for morphologic granulocytic differentiation of NB4: single agent, KN-62 5 μM, ATRA 10^−9 M
# Experimental: as §1
# Antibodies and chemical reagents. Antibodies against RARα, βtubulin, CaMKIIα, CaMKIIβ, CaMKIIγ, CaMKIIδ, CaMKIα, as well as phosphospecific antibodies against CaMKII were all purchased from Santa Cruz Biotechnology. Antibodies against N-CoR and SMRT were from Upstate Biotechnology. CaMKIV antibody was from BD Biosciences. Anti-FLAG antibody was from Sigma while anti-HA antibody from Novachem. Quantitation of CD11b surface antigen expression was performed utilizing the fluorescent-activated cell sorter (FACS) with PE-conjugated anti-CD11b antibody from Becton Dickinson. KN-62, KN-93 and ionomycin were obtained from Calbiochem. ATRA and calmodulin agarose beads were from Sigma.
# [4] = system: Stat3 Ser727 phosphorylation in TonB210 cells; test: bcr-abl induced Stat3 Ser727 phosphorylation in TonB210.1 cells (Western blot); type: cell-based; details: compound added immediately prior to doxycycline, 24 hours
# Experimental: FIG. 13. Stat3 is directly phosphorylated and activated by CaMKIIγ at Ser727. (A, i). Cell lysates from the indicated human leukemia cell lines were subjected to Western blots utilizing the indicated Stat3 antibodies. ii). Cell lysates from the same primary AML samples depicted in FIG. 1B were subjected to Western blots utilizing the indicated Stat3 antibodies. B). The IL-3 dependent TonB210.1 cells were deprived of IL-3 for 24 hours. The cells were then treated with the indicated compounds immediately prior to the addition of doxycycline. After an additional 24 hours cell lysates were harvested and subjected to Western blots with the indicated Stat3 antibodies. C). K562 cells were electroporated with a luciferase reporter driven by a Stat3 response element. The indicated concentrations of KN93 and the Stat 3 inhibitor, cucurbitacin I, were added and relative luciferase activity determined on cell lysates following 48 hours of culture. D, i) K562 cell lysates were immunoprecipitated with control IgG or a Stat3 antibody. The immunoprecipitates were then subjected to Western blot analysis with the indicated antibodies. ii,) A bacterial—expressed GST-Stat3 fusion protein was incubated in vitro with CaMKIIγ that had been immunoprecipitated from HL60 cells. Western blots were then performed on the reaction mixtures utilizing the indicated Stat3 antibodies. iii,). […]
# K-562 cells = test: Differentiation of K-562 cells; type: cell-based, human
# Source text: Pharmacological CaMK inhibitors trigger myeloid leukemia cell differentiation. Particularly compelling evidence for the physiological importance of the CaMKII—mediated regulation of RAR activity is our experimental observation that KN-62, a pharmacological inhibitor of the CaMKs, enhances both RAR transcriptional activity (FIG. 1B) and the differentiation of certain myeloid leukemia cell lines (FIG. 7). Acute myelogenous leukemia (AML) is a heterogenous disease, and successful therapy with RA has been generally confined to those leukemias harboring RARα chromosome translocations.
# Inhibitors of CaMKII inhibit the proliferation of myeloid leukemia cell lines. To determine whether inhibiting CaMKIIγ activity might have any effect on myeloid leukemia cell proliferation/viability, we treated K562 cells with the CaMK inhibitor KN93. […] The KN93 induced inhibition of K562 cell proliferation was accompanied by a reduction in the levels of the activated (autophosphorylated) CaMKIIγ (FIG. 12A, row 1).
# [5] = system: autophosphorylated CaMKIIγ in TonB210.1 cells; test: bcr-abl induced CaMKII autophosphorylation in TonB210.1 cells (Western blot); type: cell-based; details: TonB210.1 deprived of IL-3 for 24 hours, compound added with doxycycline
SMILES,total CaMKIIγ level [1],"activated, autophosphorylated CaMKIIγ level [1]",total CaMKIIγ level [2],"activated, autophosphorylated CaMKIIγ level [2]",morphologic granulocytic differentiation of NB4 [3],bcr-abl induced Stat3 Ser727 phosphorylation [4],"differentiation of K-562 (K-562 cells; preliminary studies, not shown)","autophosphorylated CaMKIIγ level ([2]; KN62 combined with relatively low concentrations of RA, five days)",bcr-abl (tet/doxycycline) restored CaMKII autophosphorylation [5],"granulocytic differentiation of NB4 (morphology, Cd11b surface antigen) ([3]; KN-62 (5 μM) in combination with RA 10^−9M-10^−10M)",morphologic differentiation of K562 (K-562 cells; KN93 treated K562)
"CC1=C(/C=C/C(C)=C/C=C/C(C)=C/C(=O)O)C(C)(C)CCC1 [ATRA, All-trans retinoic acid]",essentially unchanged,marked decrease,essentially unchanged,marked decrease,little differentiation,,,,,,
CN([C@@H](Cc1ccc(OS(=O)(=O)c2cccc3cnccc23)cc1)C(=O)N1CCN(c2ccccc2)CC1)S(=O)(=O)c1cccc2cnccc12 [KN-62],did not induce any significant changes,marked reduction,,little effect,relatively poor inducer,blocked,does not induce,reduction,inhibited in a dose dependent manner,marked increase,
COc1ccc(S(=O)(=O)N(CCO)c2ccccc2CN(C)C/C=C/c2ccc(Cl)cc2)cc1 [KN-93],,,,,,blocked,,,inhibited in a dose dependent manner,,no effect
